Target: T1, NOS3 (Homo sapiens, UniProt P29474)
T1 construct: endogenous, basal NOS3 activity was estimated at each of these sub-cellular locations in T-47D cells; endogenous in cells; host or cells: T-47D cells
Assay: Steady state NOS3 activity imaging at plasma membrane and TGN with NOckout probes
Assay type: cell-based
Conditions: T-47D cells
Experimental: Image acquisition. T-47D cells were maintained as mentioned above in the cell culture section. Cells were washed twice with Hank's balanced salt solution (HBSS) before incubating them with 500 nM NOckout^TGN for 30 min or 500 nM NOckout^PM for 10 min at 37° C. followed by 3 washes with HBSS solution to remove any unloaded sensors. For steady state imaging (FIG. 1), cells were treated with indicated agonists or antagonists for 1 hr in complete RPMI-1640 medium. Care was taken not to exceed the final concentration of DMSO>1% at any time of the experiment. Additionally, 1% DMSO was used as a negative control in untreated (Basal) cells. […] The cells are then washed and imaged (FIG. 1f).
For simultaneous imaging cells were treated with 500 nM NOckout^TGN for 30 min where last 10 min cells were co-incubated with 500 nM NOckout^PM. In order to achieve lowest signal (PTIO, FIG. 1e-f) or to achieve bleaching profile (PTIO, FIG. 3e) cells were pre-treated with 500 μM PTIO for 15 minutes. Images were captured on a Laser scanning confocal Leica SP8 microscope using 63×, 1.4UV NA objective. Desired excitation and emission wavelengths was achieved using white light laser along with notch filters and acousto-optical tunable filters. A488, DAR and A647 were imaged using the following settings—Alexa488 (λex=488 nm, λem=500 nm to 540 nm), DAR (λex=554 nm, λem=565 nm to 610 nm) and Alexa647 (λex=647 nm, λem=665 nm to 710 nm).
Image analysis was performed using Fiji (Schindelin, J. et al. Fiji: an open-source platform for biological-image analysis. Nat Methods 9, 676-682 (2012)). Auto-fluorescence was subtracted from images for ratiometric analysis. For representation, images were further processed by smooth and despeckle functions. In order to present G/B or G/R images, a mask for each image was constructed using Otsu thresholding method, and mask-multiplied images were used for division. The ROI plugin in Fiji was used to select either TGN (Alexa647 channel) or PM (Alexa488 channel) and these ROIs were recalled in DAR channel to measure intensity in all three channels.
Next, endogenous, basal NOS3 activity was estimated at each of these sub-cellular locations in T-47D cells without explicitly activating NOS3. To do this, the ratiometric NOckout^PM response, i.e. the G/B ratio, was first measured under conditions where cells were depleted of NO using the NO scavenger 2-phenyl-4,4,5,5-tetramethylimidazoline-1-oxyl 3-oxide (PTIO, 300 μM) (Goldstein, S., Russo, A. & Samuni, A. Reactions of PTIO and carboxy-PTIO with *NO, *NO2, and O2−*. J Biol. Chem. 278, 50949-50955 (2003)). […] These two extreme cases provide the minimum and maximum G/B signals afforded by NOckout^PM in the cell (FIG. 1e-f). The G/B values under any subsequent condition are normalized to the maximum G/B signal. […]

Molecule	G/B and G/R values of NOckout probes (NOS3 activity)
Nc1ncnc2c1ncn2[C@@H]1O[C@H](COP(=O)(O)OP(=O)(O)OP(=O)(O)O)[C@@H](O)[C@H]1O [ATP]	significantly higher G/B and G/R ratios
C[C@]12CC[C@@H]3c4ccc(O)cc4CC[C@H]3[C@@H]1CC[C@@H]2O [E2, 17 β-Estradiol]	selectively activated NOS3 only at the plasma membrane
COC(=O)[C@@H](N)CCCNC(=N)N[N+](=O)[O-] [L-NAME, L-N^G-Nitroarginine methyl ester]	reflected those of PTIO-treated cells

System: T-47D cells
Assay: Golgi fragmentation (Giantin/GM130 immunofluorescence)
Assay type: cell-based
Conditions: not given
Experimental: (§1) Immunofluorescence staining. Cells were cultured on a glass bottom 3.5 cm imaging dish to reach 60% confluency. […] Treated cells were then washed three times with 1× PBS (pH 7.4) and fixed using, 4% paraformaldehyde at room temperature (RT, 15 min). Subsequently, cells were permeabilized using 0.25% triton X-100 followed by blocking using 3% BSA in 1× PBS. Cells were then incubated with indicated primary antibodies—mouse monoclonal anti-eNOS antibody (SantaCruz Cat #sc-376751), Polyclonal Anti-S-nitrosocysteine antibody (Abeam Cat #ab94930 or Abeam Cat #ab50185), Rabbit polyclonal Anti-Giantin antibody (Abeam Cat #ab24586) or Mouse monoclonal Anti-GM130 antibody (BD Biosciences Cat #610822) in blocking buffer (3% BSA in 1× 4 PBS) for 1 hour at RT. Cells were then washed for 5 min with 1× PBS (3×). Respective secondary antibodies conjugated with either Alexafluor 488 or Alexafluor 647 were added to the cells and incubated for 1 hr at RT. Cells were washed again to remove excess secondary antibody using 1× PBS for 5 min (3×). Hoechst 33342 (5 μM) was added 10 min prior to imaging to stain nuclear DNA. Cells were then imaged on a Leica SP8 laser scanning confocal microscope using excitation wavelengths 405 nm (Hoechst), 488 nm (AlexaFluor 488) and 647 nm (AlexaFluor 647). Images were processed using Fiji and maximum z-projection of 2-3 z-planes are used in representative images.
Golgi fragmentation was quantified with immunofluorescence images of Golgi structural protein Giantin. Merge images of Hoechst and Giantin allowed identification of cell numbers and enumeration of Golgi fragments per cell (≤3 Golgi fragments per cell was considered intact Golgi) (Lee, J. E. et al. Dependence of Golgi apparatus integrity on nitric oxide in vascular cells: implications in pulmonary arterial hypertension. Am. J. Physiol. Heart Circ. Physiol. 300, H1141-58 (2011)). […]
Small molecule inhibitors were then screened to identify the molecular pathway by which NOS3 inhibition induces Golgi fragmentation. This is based on the rationale that inhibiting a protein on this pathway should also block methylene blue-induced Golgi fragmentation. […] A range of small molecule inhibitors against kinases that have previously ascribed roles in Golgi fragmentation were then used. DNA-PK with NU7441 was ruled out (Farber-Katz, S. E. et al. DNA damage triggers Golgi dispersal via DNA-PK and GOLPH3. Cell 156, 413-427 (2014)). Compounds containing an indirubin core have broad specificity for Cyclin dependent kinases (CDKs) and Src kinases. […] CDK1, CDK2 and CDK5 were ruled out, using (R)-Roscovitine (Rosco).

Molecule	effect on methylene blue (MB)-induced Golgi fragmentation	Golgi fragmentation by treatment alone	reduction of MB-induced Golgi fragmentation [%]
CC[C@H](CO)Nc1nc(NCc2ccccc2)c2ncn(C(C)C)c2n1 [(R)-Roscovitine]	ruled out		
COC(=O)[C@@H](N)CCCNC(=N)N[N+](=O)[O-] [L-NAME, L-N^G-Nitroarginine methyl ester]		underwent fragmentation	
C/C1=C/C(=O)O[C@@H]2C[C@@H](CC[C@H](C)/C=C\CC1)O[C@@](O)([C@@H]1CSC(=O)N1)C2 [Latrunculin B]	completely blocked		
CN(C)c1ccc2nc3ccc(=[N+](C)C)cc-3sc2c1 [Methylene Blue]		fragmented morphology	
O=c1cc(N2CCOCC2)oc2c(-c3cccc4c3sc3ccccc34)cccc12 [NU7441]	ruled out		
CC1(C)N([O])C(c2ccccc2)=[N+]([O-])C1(C)C [PTIO, 2-phenyl-4,4,5,5-tetramethylimidazoline-1-oxyl 3-oxide]		fragmented morphology	
CN(C)S(=O)(=O)c1ccc2c(c1)/C(=C/c1cc3c([nH]1)CCCC3)C(=O)N2 [SU6656]			~50
CC1(C)CC(O)CC(C)(C)N1[O] [TEMPOL]		none of these treatments fragmented the Golgi	
C[C@@H](N)[C@H]1CC[C@H](C(=O)Nc2ccncc2)CC1 [Y-27632]	not mediated by apoptosis		
O=C1Nc2ccccc2/C1=C1/Nc2ccccc2/C1=N\O [indirubin-3′-monoxime]	completely blocked		
O=C1Nc2ccccc2/C1=C1/Nc2ccccc2/C1=N\OCC(O)CO (stereo not drawn) [indirubin-e804]	completely blocked		
Hemoglobin		fragmented morphology	

System: S-nitrosylation at the Golgi
Assay: Anti-S-nitrosocysteine immunostaining of T-47D cells
Assay type: cell-based
Conditions: not given
Experimental: as §1
In order to address the significance of the […] population of NOS3 at the TGN, T-47D cells were immunostained using an antibody specific to S-nitrosocysteine.
Similar observations were made in MCF-7 cells upon NO depletion (FIG. 23). These studies reveal that the Golgi is a cellular hot-spot for 5-nitrosylation of proteins by NOS3, where it is essential for the maintenance of Golgi architecture in breast cancer cells. […] In addition to Golgi fragmentation, NO scavenging also hampered cell growth by inducing cell sensescence (FIG. 24).

Molecule	S-nitrosylation at the Golgi
COC(=O)[C@@H](N)CCCNC(=N)N[N+](=O)[O-] [L-NAME, L-N^G-Nitroarginine methyl ester]	dramatically reduced
CC1(C)N([O])C(c2ccccc2)=[N+]([O-])C1(C)C [PTIO, 2-phenyl-4,4,5,5-tetramethylimidazoline-1-oxyl 3-oxide]	greatly diminished

Target: T2, murine TLR-9 (Mus musculus, UniProt Q9EQU3)
T2 construct: endogenous in cells; host or cells: primary microglia from C57BL/6 mice
T2 sequence (Q9EQU3 26-1032): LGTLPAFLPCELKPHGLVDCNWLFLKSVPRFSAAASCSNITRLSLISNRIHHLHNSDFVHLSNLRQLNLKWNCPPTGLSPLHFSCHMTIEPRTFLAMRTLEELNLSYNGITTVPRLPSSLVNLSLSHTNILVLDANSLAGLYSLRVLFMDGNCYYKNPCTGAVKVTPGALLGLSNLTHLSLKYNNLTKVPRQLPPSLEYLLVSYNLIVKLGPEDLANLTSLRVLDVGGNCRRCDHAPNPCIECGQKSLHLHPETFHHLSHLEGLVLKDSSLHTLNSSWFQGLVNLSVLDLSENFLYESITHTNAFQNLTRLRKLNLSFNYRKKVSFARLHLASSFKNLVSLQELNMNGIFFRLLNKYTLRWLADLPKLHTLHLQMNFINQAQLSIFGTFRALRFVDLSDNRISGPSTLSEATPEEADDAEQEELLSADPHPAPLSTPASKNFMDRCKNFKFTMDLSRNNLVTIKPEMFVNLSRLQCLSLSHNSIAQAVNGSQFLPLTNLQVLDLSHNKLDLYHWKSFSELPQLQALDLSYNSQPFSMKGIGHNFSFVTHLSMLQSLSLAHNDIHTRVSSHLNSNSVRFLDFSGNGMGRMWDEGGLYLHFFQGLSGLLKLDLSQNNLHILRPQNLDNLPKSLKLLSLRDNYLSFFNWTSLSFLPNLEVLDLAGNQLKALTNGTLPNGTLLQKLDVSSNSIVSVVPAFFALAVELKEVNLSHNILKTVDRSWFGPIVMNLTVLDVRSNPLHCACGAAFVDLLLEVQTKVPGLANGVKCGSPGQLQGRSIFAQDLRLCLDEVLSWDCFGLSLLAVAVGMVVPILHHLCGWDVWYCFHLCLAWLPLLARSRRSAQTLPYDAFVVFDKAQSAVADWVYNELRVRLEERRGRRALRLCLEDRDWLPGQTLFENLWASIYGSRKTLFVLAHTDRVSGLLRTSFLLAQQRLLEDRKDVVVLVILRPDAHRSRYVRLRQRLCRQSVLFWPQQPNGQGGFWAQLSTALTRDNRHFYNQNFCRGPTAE
Assay: Endosomal NO in primary mouse microglia with NOckout^mCpG
Assay type: cell-based
Conditions: primary microglial cells, NOckout^mCpG 500 nM 120 min, without or with 200 nM BAF
Excerpt: Image analysis: A MATLAB based program called Findosome was used to calculate the (G/R) values of individual endosomes from the acquired images. Maximum Z-projected images created using Fiji (NIH) were fed to Findosome to pick endosomal compartments as ROI corresponding to individual endosomes based on the A647 channel intensity. For each ROI, the program calculates fluorescence intensities both in the normalizing channel (A647, R) as well as in the DAR (G) channel. The results were exported as an excel file. From the results, (G/R) value for individual endosomes can be calculated. Phagosomal (G/R) values from the zebrafish microglia are calculated using Fiji software. Images were imported to Fiji and maximum Z-projected images were created. ROI were manually drawn around clearly identifiable phagosomes using the normalizing channel A647 intensity. Fluorescence intensities in A647 and DAR channels were calculated. G/R values are either represented as heat map images using Fiji or as bar graph using Origin software. Intracellular measurements of (G/R) values was performed in GFP colocalized microglia. For (G/R) ratio quantification experiments, only those vesicles that are present in both green (G) and red (R) channels were considered. […]

Molecule	endosomes with G/R value≥0.45 [%]
CO/C1=C\C(C)=C\[C@@H](C)[C@@H](O)[C@@H](C)C/C(C)=C/C=C/[C@H](OC)[C@@H]([C@@H](C)[C@@H](O)[C@H](C)[C@@]2(O)C[C@@H](O)[C@H](C)[C@@H](C(C)C)O2)OC1=O [BAF]	50
